Source: patent US9592186B2, “Topical compositions and methods for skin lightening” (Avon Products, Inc., priority 2014, dated 2017)

Tested on: Human epidermal melanocytes from dark-pigmented skin
Assay: Melanin absorbance (pigmentation) in cultured human epidermal melanocytes after 8 days of incubation
Type: cell-based
Details: for effect on pigmentation (in words): summary of Table 1; for % Pigmentation (percent change of melanin absorbance relative to vehicle control): 8 days incubation, absorption at 405 nm
Description: The Compound of Formula (II) was examined for its ability to reduce pigmentation in vitro in human melanocytes. Human epidermal melanocytes from dark-pigmented skin were seeded in 6-well dishes and grown using commercially available Medium 254, a sterile, liquid medium prepared with 200 μM calcium chloride for the culture of human epidermal melanocytes, supplemented with 1% Penicillin/Streptomycin and 1% Human Melanocyte Growth Supplement. Corresponding controls were maintained without histamine, Diphenylhydramine HCl and Compound II. Four replicates were tested for each combination. After 8 days of incubation, melanin was collected and processed by washing the wells with IX phosphate-buffered saline (PBS), followed by addition of 200 μL of 2M NaOH to three of the four replicates, which are then scraped, pooled and boiled at 80° C. for an hour. Melanin absorption was then measured at 405 nm using a spectrophotometer.
A larger (positive or negative) percent change indicates a larger increase or reduction in melanin.

| Structure (SMILES) | effect on pigmentation (in words) (at both concentrations tested (0.001% and 0.0001%)) | % Pigmentation (percent change of melanin absorbance relative to vehicle control) (concentration 0.0001%) | % Pigmentation (percent change of melanin absorbance relative to vehicle control) (concentration 0.001%) | effect on pigmentation (in words) (5 μM) |
| --- | --- | --- | --- | --- |
| CC(=O)c1ccc(OCC(=O)NCC(c2ccco2)N2CCCCC2)cc1 (stereo not shown) [Compound (II)] | effective to reduce pigmentation | −10.40% | −40.83% | – |
| NCCc1c[nH]cn1 [Histamine, reference compound] | – | – | – | significant increase in pigmentation |
